Reference: paper PMC12750394 (ACS Omega, 2025)
Bridge positions count the residues as written; N and C are the ends. Square brackets hold non-standard residues; d marks the D form. Peptide text beside a SMILES is read from it. * marks the point of attachment. X1 = CC[C@H](C)CCCCC(=O)*; Dab = NCC[C@H](N)C(=O)O

Experiments:
[1] = tested on: B. subtilis; experiment: microbe, parasite or virus in culture; settings: for MIC: Bacillus subtilis, read-out: average MIC against B. subtilis; for average MIC against B. subtilis: microbroth dilution, 4 × 10^6 CFU/mL, 1 h at 37 °C, TSB added, 24 h at 37 °C, growth inhibition read visually, highest DesHDAP2 concentration […], three technical replicates each from four independent biological experiments
Source text: (§1) The bacteria species and strains used in this study were: Top10 E. coli containing a pET plasmid with ampicillin resistance (Invitrogen Top10), S. marcescens (Carolina Biosciences #155554A), E. aerogenes (ATCC #51697), E. raffinosus (ATCC #49464), S. epidermidis (ATCC #14990) and B. subtilis (ATCC #6501). For radial diffusion, microbroth dilution, and checkerboard assays, bacterial cultures in tryptic soy broth (TSB) were started from individual colonies picked from agar plates and grown overnight (≈16–18 h) in a shaking incubator at 37 °C. Overnight bacterial cultures were diluted into fresh TSB and grown at 37 °C to an optical density (OD600) of 0.5–0.7. Bacteria were pelleted via centrifuge at 1500g at room temperature for 10 min, washed once with cold sterile sodium phosphate buffer (10 mM Na3PO4, 100 mM NaCl, pH 7.4), then pelleted and resuspended again in sodium phosphate buffer.
(§2) Antimicrobial activity was assessed using the microbroth dilution assay. A resuspended bacterial culture prepared as described above was mixed with deionized water to reach a final bacterial concentration of 4 × 10^6 CFU/mL. A twofold dilution series of peptides in deionized water was prepared. 10 μL of the serial dilutions were added to 90 μL of the 4 × 10^6 CFU/mL bacterial solution in a 96-well plate. […] After incubating for 1 h at 37 °C, 50 μL of TSB was added to each testing well. After incubation for 24 h at 37 °C, growth inhibition was determined visually to assess MIC.

[2] = tested on: E. coli; experiment: microbe, parasite or virus in culture; settings: for average MIC against E. coli: microbroth dilution, 4 × 10^6 CFU/mL, 1 h at 37 °C, TSB added, 24 h at 37 °C, growth inhibition read visually, highest DesHDAP2 concentration […], three technical replicates each from four independent biological experiments
Protocol: as §1, with “For” for “The bacteria species and strains used in this study were: Top10 E. coli containing a pET plasmid with ampicillin resistance (Invitrogen Top10), S. marcescens (Carolina Biosciences #155554A), E. aerogenes (ATCC #51697), E. raffinosus (ATCC #49464), S. epidermidis (ATCC #14990) and B. subtilis (ATCC #6501). For”
as §2, with “well.” for “well. After incubation for 24 h at 37 °C, growth inhibition was determined visually to assess MIC.”

C[C@H]1COc2c(N3CCN(C)CC3)c(F)cc3c(=O)c(C(=O)O)cn1c23 [levofloxacin]
MIC [1]: 5 µg/mL
MIC ([2]; Escherichia coli, read-out: average MIC against E. coli): 0.2 µg/mL

CC[C@H](C)CCCCC(=O)N[C@@H](CCN)C(=O)N[C@H](C(=O)N[C@@H](CCN)C(=O)N[C@H]1CCNC(=O)[C@H]([C@@H](C)O)NC(=O)[C@H](CCN)NC(=O)[C@H](CCN)NC(=O)[C@H](CC(C)C)NC(=O)[C@@H](Cc2ccccc2)NC(=O)[C@H](CCN)NC1=O)[C@@H](C)O [polymyxin B] (X1-[Dab]T[Dab][Dab][Dab][dF]L[Dab][Dab]T; lactam 4-C (inferred); N-terminus assumed)
average MIC against B. subtilis [1]: 2000 µg/mL
average MIC against E. coli [2]: 65 µg/mL

CN(C)[C@@H]1C(O)=C(C(N)=O)C(=O)[C@@]2(O)C(O)=C3C(=O)c4c(O)cccc4[C@@](C)(O)[C@H]3C[C@@H]12 [tetracycline]
MIC [1]: 15.6 µg/mL

NC[C@H]1O[C@H](O[C@H]2[C@H](O)[C@@H](O[C@H]3O[C@H](CO)[C@@H](O)[C@H](N)[C@H]3O)[C@H](N)C[C@@H]2N)[C@H](O)[C@@H](O)[C@@H]1O [kanamycin]
average MIC against B. subtilis [1]: 3.125 µg/mL
average MIC against E. coli [2]: 50 µg/mL
